15 compounds from paper PMC9189845, “Structure–Activity Relationships of 8-Hydroxyquinoline-Derived Mannich Bases with Tertiary Amines Targeting Multidrug-Resistant Cancer” (Journal of Medicinal Chemistry, 2022) can be followed below.

Like-named read-outs stand apart in the source and are kept apart here.

One assay relates to MES-SA cells. Kind of assay: PrestoBlue viability assay, MES-SA cells. The settings on record: for pIC50 value MES-SA: MES-SA cells, without TQ.
In the next assay the test system is MES-SA/Dx5 cells. Kind of assay: PrestoBlue viability assay, MES-SA/Dx5 cells (MDR, P-gp positive). Particulars: for pIC50 value MES-SA/Dx5: MES-SA/Dx5 cells, without TQ.
Setting [1] is: read-out: IC50 / μM MES-SA, absence of TQ, 72 h incubation.
The mark [2] stands for this setting: read-out: IC50 / μM MES-SA/Dx5, absence of TQ, 72 h incubation.
Where [3] appears, read: selectivity ratio MES-SA vs MES-SA/Dx5, with TQ.
Where [4] appears, read: selectivity ratio MES-SA vs MES-SA/Dx5, without TQ.
Setting [5] is: Homo sapiens, MES-SA, 72 h, read-out: IC50 / μM MES-SA, absence of TQ, 72 h incubation.
The mark [6] stands for this setting: Homo sapiens, MES-SA, read-out: pIC50 value MES-SA, MES-SA cells, without TQ (converted).
Setting [7] is: Homo sapiens, MES-SA/Dx5, 72 h, read-out: IC50 / μM MES-SA/Dx5, absence of TQ, 72 h incubation.
[8] abbreviates: Homo sapiens, MES-SA/Dx5, read-out: pIC50 value MES-SA/Dx5, MES-SA/Dx5 cells, without TQ (converted).

“2-((4-Methylpiperazin-1-yl)methyl)phenol [Compound 72]”: the IC50 in the assay on MES-SA cells (setting [1]) and in the assay on MES-SA/Dx5 cells (setting [2]) was > 100 µM throughout.
Regarding `Oc1c(C(c2ccccc2Br)N2CCCC2)ccc2cccnc12` (racemic) [Compound 88], the “pIC50 value MES-SA” value in the assay on MES-SA cells was determined as 4.89. The IC50 stood at 13 ± 1.35 µM in the assay with MES-SA cells (setting [1]) and 6.6 ± 0.21 µM with MES-SA/Dx5 cells (setting [2]). Further, the “pIC50 value MES-SA/Dx5” value with MES-SA/Dx5 cells is 5.18. Also, in the assay with MES-SA/Dx5 cells (setting [3]), the SR_TQ worked out at 1.55. Also, the SR in the assay with MES-SA/Dx5 cells (setting [4]) came to 1.98.
On to `Oc1c(C(c2ccc(C(F)(F)F)cc2)N2CCCC2)ccc2cccnc12` (racemic) [Compound 89], for which, in the assay with MES-SA cells, the “pIC50 value MES-SA” value amounted to 4.98. Moreover, the IC50 is 11.1 ± 3.57 µM with MES-SA cells (setting [1]) and 2.83 ± 0.61 µM in the assay on MES-SA/Dx5 cells (setting [2]). Besides, in the assay on MES-SA/Dx5 cells, the “pIC50 value MES-SA/Dx5” value is listed as 5.56. The SR_TQ in the assay with MES-SA/Dx5 cells (setting [3]) is 1.12. For the same compound, the SR in the assay on MES-SA/Dx5 cells (setting [4]) amounted to 3.91.
With `CC1CCN(C(c2ccccc2)c2ccc3cccnc3c2O)CC1` (racemic) [Compound 99], in the assay on MES-SA cells, the “pIC50 value MES-SA” value is 5.06. The figures for the IC50 with MES-SA cells (setting [1]) and in the assay on MES-SA/Dx5 cells (setting [2]) were 8.77 ± 0.24 µM and 11.5 ± 1.75 µM, respectively. In the assay on MES-SA/Dx5 cells, the “pIC50 value MES-SA/Dx5” value was determined as 4.95. For the same compound, in the assay with MES-SA/Dx5 cells (setting [4]), the SR turned out to be 0.76.
With `CC1CCN(C(c2cccs2)c2ccc3cccnc3c2O)CC1` (racemic) [Compound 101], in the assay with MES-SA cells, the “pIC50 value MES-SA” value came out at 4.97. Also, the IC50 worked out at 10.8 ± 0.18 µM in the assay on MES-SA cells (setting [1]) and 16.6 ± 0.81 µM in the assay with MES-SA/Dx5 cells (setting [2]). In the assay with MES-SA/Dx5 cells, the “pIC50 value MES-SA/Dx5” value was determined as 4.78. Moreover, the SR in the assay with MES-SA/Dx5 cells (setting [4]) turned out to be 0.65.
On to `OCCN1CCN(C(c2ccc(F)cc2)c2ccc3cccnc3c2O)CC1` (racemic) [Compound 120], for which the “pIC50 value MES-SA” value with MES-SA cells is listed as 4.18. The results for the IC50 in the assay on MES-SA cells (setting [1]) and with MES-SA/Dx5 cells (setting [2]) were 66.7 ± 4.56 µM and 29.1 ± 7.12 µM, respectively. The “pIC50 value MES-SA/Dx5” value in the assay on MES-SA/Dx5 cells is listed as 4.55. For the same compound, the “SR_TQ” value in the assay with MES-SA/Dx5 cells (setting [3]) was found to be 1.55. The SR with MES-SA/Dx5 cells (setting [4]) is 2.29.
As to `Oc1cccc2cccnc12` [Compound 12, 8-hydroxyquinoline], the IC50 is 5.04 ± 0.51 µM in the assay with MES-SA cells (Homo sapiens, MES-SA, 72 h, read-out: IC50 / μM MES-SA); 5.13 ± 0.05 µM in the assay with MES-SA cells (Homo sapiens, MES-SA, read-out: IC50 / μM MES-SA (values in parentheses)); 5.01 µM in the assay on MES-SA cells (Homo sapiens, MES-SA, read-out: pIC50 value MES-SA (converted)); 5.13 µM in the assay with MES-SA cells (Homo sapiens, MES-SA, read-out: pIC50 value MES-SA+TQ (converted)); 3.04 ± 0.35 µM in the assay with MES-SA/Dx5 cells (Homo sapiens, MES-SA/Dx5, 72 h, read-out: IC50 / μM MES-SA/Dx5); 2.2 ± 0.18 µM in the assay on MES-SA/Dx5 cells (Homo sapiens, MES-SA/Dx5, read-out: IC50 / μM MES-SA/Dx5 (values in parentheses)). Besides, the IC50 was 3.02 µM in the assay with MES-SA/Dx5 cells (Homo sapiens, MES-SA/Dx5, read-out: pIC50 value MES-SA/Dx5 (converted)) and 2.19 µM with MES-SA/Dx5 cells (Homo sapiens, MES-SA/Dx5, read-out: pIC50 value MES-SA/Dx5 + TQ (converted)). Moreover, the SR in the assay on MES-SA/Dx5 cells is 1.66. For the same compound, the SR_TQ with MES-SA/Dx5 cells stood at 2.34.
Consider `CCN(CC)Cc1ccc(O)c2ncccc12` [Compound 45], for which the IC50 in the assay with MES-SA cells (setting [5]) is 4.5 ± 0.04 µM; in the assay with MES-SA cells (setting [6]), 4.47 µM; in the assay with MES-SA/Dx5 cells (setting [7]), 5.02 ± 0.26 µM; in the assay with MES-SA/Dx5 cells (setting [8]), 5.01 µM. Also, in the assay with MES-SA/Dx5 cells (setting [4]), the SR is 0.9.
Regarding `Oc1ccc(CN2CCCC2)c2cccnc12` [Compound 46], the IC50 was 7.81 ± 0.5 µM with MES-SA cells (setting [5]), 7.76 µM with MES-SA cells (setting [6]), 5.31 ± 0.52 µM in the assay on MES-SA/Dx5 cells (setting [7]) and 5.25 µM in the assay on MES-SA/Dx5 cells (setting [8]). In the assay on MES-SA/Dx5 cells (setting [4]), the SR worked out at 1.47.
Taken in the same sequence, the figures for `CCOC(=O)C1CCN(Cc2ccc(O)c3ncccc23)CC1` [Compound 48] were 4.62 ± 1.03 µM, 4.47 µM, 3.54 ± 0.72 µM, 3.47 µM and 1.31.
As to `Oc1ccc(CN2CCc3ccccc3C2)c2cccnc12` [Compound 50], the IC50 with MES-SA cells (setting [5]) was 16.7 ± 1.5 µM; in the assay with MES-SA cells (setting [6]), 16.6 µM; in the assay on MES-SA/Dx5 cells (setting [7]), 17 ± 0.49 µM; in the assay on MES-SA/Dx5 cells (setting [8]), 17 µM. In the assay with MES-SA/Dx5 cells (setting [4]), the SR is 0.99.
In the same order, the values of `Oc1ccc(CN2CCCCCC2)c2cccnc12` [Compound 52] are 7.15 ± 0.27 µM, 7.08 µM, 5.84 ± 0.69 µM, 5.75 µM and 1.23.
Taken in the same sequence, the figures for `Oc1ccc(CN2CCOCC2)c2cccnc12` [Compound 54] were 6.99 ± 0.31 µM, 6.92 µM, 9.58 ± 0.33 µM, 9.55 µM and 0.73.
For `Oc1ccccc1CN1CCCCC1` [Compound 59], the IC50 with MES-SA cells (setting [5]) and with MES-SA/Dx5 cells (setting [7]) was > 100 µM each time.
`COc1ccc(O)c(CN2CCCCC2)c1` [Compound 60]: the IC50 in the assay on MES-SA cells (setting [5]) and with MES-SA/Dx5 cells (setting [7]) was > 100 µM each time.
